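Method: 48-hour compound exposure of cells in 96-well plates, five concentrations, linear interpolation of endpoints. GI50: concentration for 50% inhibition of growth. TGI: concentration producing complete growth inhibition.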
Experiments:
Assay in all cases: NCI anticancer screen, dose series, 48 h
HL-60(TB) leukemia = system: HL-60(TB) leukemia
OVCAR-4 ovarian = system: OVCAR-4 ovarian
OVCAR-8 ovarian = system: OVCAR-8 ovarian
SK-MEL-5 melanoma = system: SK-MEL-5 melanoma
SN12C renal = system: SN12C renal
SNB-75 CNS = system: SNB-75 CNS
TK-10 renal = system: TK-10 renal
RPMI-8226 leukemia = system: RPMI-8226 leukemia
SF-539 CNS = system: SF-539 CNS
MCF7 breast = system: MCF7 breast

SMILES	TGI (HL-60(TB) leukemia) [µM]	TGI (OVCAR-4 ovarian) [µM]	TGI (OVCAR-8 ovarian) [µM]	TGI (SK-MEL-5 melanoma) [µM]	TGI (SN12C renal) [µM]	TGI (SNB-75 CNS) [µM]	TGI (TK-10 renal) [µM]	GI50 (HL-60(TB) leukemia) [µM]	GI50 (OVCAR-4 ovarian) [µM]	GI50 (RPMI-8226 leukemia) [µM]	TGI (RPMI-8226 leukemia) [µM]	GI50 (SF-539 CNS) [µM]	TGI (SF-539 CNS) [µM]	GI50 (SK-MEL-5 melanoma) [µM]	GI50 (SNB-75 CNS) [µM]	GI50 (TK-10 renal) [µM]	TGI (MCF7 breast) [µM]	GI50 (MCF7 breast) [µM]	GI50 (OVCAR-8 ovarian) [µM]	GI50 (SN12C renal) [µM]
N#CC1CC2(C(=O)C1=O)c1ccccc1-c1ccccc12 (configuration not stated)	> 100	> 100	> 100	> 100	> 100	> 100	> 100	–	–	–	–	–	–	–	–	–	–	–	–	–
Cc1cc2cn3c4cccnc4[nH]c(=O)c3c2cc1C	4.16	3.19	–	2.34	–	3.08	3.91	2.08	1.6	1.89	4.66	1.73	3.12	1.13	1.43	2.27	–	–	–	–
CC/C=C/c1cc2cc[nH]c2c2c1C(C)C[C@@H]2C (some centres not stated)	58.3	–	66.2	46.4	35	70.1	> 100	–	–	–	53.4	–	50.1	–	–	–	–	–	–	–
C=CCn1cc(C(=O)NC(=O)NCCCCCOC(=O)CCCCCCCCCCC(=O)OCCCCCNC(=O)NC(=O)c2cn(CC=C)c(=O)n(C)c2=O)c(=O)n(C)c1=O	> 100	–	> 100	> 100	> 100	> 100	> 100	–	–	–	> 100	–	> 100	–	–	–	–	–	–	–
c1ccc(COC2(OCc3ccccc3)CC3OC2C2NN=NC32)cc1 (configuration not stated)	33.7	36.4	–	32.3	> 10	42.3	–	–	–	–	41.9	–	43.5	–	–	–	–	–	–	–
O=[N+]([O-])c1ccc2nc3ccccc3cc2c1	–	10.4	2.58	14.4	5.63	6.53	5.24	–	–	–	–	–	6.82	–	–	–	> 100	–	–	–
COC1=C(Br)C(=O)C2=C(C1=O)C1C3=C(C(=O)C=CC3=O)C2c2ccccc21 (configuration not stated)	–	63.7	> 100	48.9	32.2	64.4	43.5	–	13.7	4.04	> 100	2.92	8.79	16	19.4	23.8	> 100	22.7	24.3	11
O=C(c1ccc(Cl)cc1)c1ccc(OCCSCCCCCCCCCCSCCOc2ccc(C(=O)c3ccc(Cl)cc3)cc2)cc1	> 100	–	> 100	> 100	> 100	> 100	> 100	–	–	–	> 100	–	–	–	–	–	–	–	–	–
C1=Nc2ccccc2C=Nc2ccccc2C=Nc2ccccc2C=Nc2ccccc21.[Cl-].[Pt+2]	22.4	–	> 100	48.3	> 100	–	> 100	3.95	–	5.63	35.6	23.1	54.1	18.8	–	45.7	–	–	17.5	28.4
COC(=O)C1C(OCc2ccccc2)C2CCC1(OC)C=C2C (configuration not stated)	29.8	> 100	> 100	> 100	> 100	> 100	> 100	–	–	–	> 100	–	> 100	–	–	–	–	–	–	–
CSc1ncnc2c1CCN2	–	–	> 100	> 100	> 100	–	> 100	–	–	–	–	–	–	> 100	–	> 100	–	–	> 100	–
